Assay results published in ChEMBL document CHEMBL5244275, “Geminal Diheteroatomic Motifs: Some Applications of Acetals, Ketals, and Their Sulfur and Nitrogen Homologues in Medicinal Chemistry and Drug Design” (J Med Chem, 2021).
≈ marks a conversion by molar mass, not a printed value. Blank lines part the entries; values can stand above or below the compound they belong to. Numbered stars: 1 amine (or outer) side, 2 acyl side, 3 side chain; on linkers, the order of the positions; unused ones are H or OH. Bridge positions count the residues as written; N and C are the ends. Square brackets hold non-standard residues; d marks the D form. Peptide text beside a SMILES is read from it. * marks the point of attachment. Orn(4R-OH,5R-OH) = O=C([C@H](C[C@@H](O)[C@@H](O)N[*:3])N[*:1])[*:2]; Tetradecanoyl(10R,12S-Me2) = CC[C@H](C)C[C@H](C)CCCCCCCCC(=O)*; hTyr(3S-OH,4S-OH) = N[C@H](C(=O)O)[C@H](O)[C@@H](O)c1ccc(O)cc1; Gln(3R-OH) = NC(=O)C[C@@H](O)[C@H](N)C(=O)O; Pro(3S-OH) = O=C(O)[C@H]1NCC[C@@H]1O; Hyp = O=C(O)[C@@H]1C[C@@H](O)CN1

Experiments:
[1] = tested on: Candida albicans; assay: Fungicidal activity against Candida albicans; type: functional
[2] = tested on: Candida albicans; assay: Antifungal activity against Candida albicans GS; type: functional, organism-based
[3] = Aqueous stability of the compound assessed as acid-catalyzed decomposition by measuring rate constant; type: physicochemical; details: buffer
[4] = Oral bioavailability in monkey; type: ADME, organism-based, Macaca mulatta; details: rhesus monkey, in vivo
[5] = Oral bioavailability in human; type: ADME, organism-based; details: in vivo
[6] = Oral bioavailability in rat; type: ADME, organism-based; details: in vivo
[7] = Oral bioavailability in dog; type: ADME, organism-based, Canis lupus familiaris; details: in vivo
[8] = tested on: Hepatitis C virus; assay: Antiviral activity against Hepatitis C virus genotype 1a harboring NS5A Y93H mutant; type: functional, organism-based, Hepacivirus hominis
[9] = Stability of the compound in 0.01 N HCL at pH 2.0 assessed as half-life; type: physicochemical
[10] = tested on: Plasmodium falciparum; assay: Antiplasmodial activity against Plasmodium falciparum W2 assessed as inhibition of parasite growth; type: functional, organism-based
[11] = tested on: Plasmodium falciparum; assay: Antiplasmodial activity against Plasmodium falciparum FcM29 assessed as inhibition of plasmodial growth; type: functional, organism-based
[12] = Stability of the compound at pH 1 assessed as half-life; type: physicochemical; details: buffer
[13] = Aqueous solubility of compound; type: physicochemical; details: aqueous (not further specified)
[14] = tested on: Human immunodeficiency virus 1; assay: microbe, parasite or virus in culture; details: Human immunodeficiency virus 1, LAV
[15] = Cmax in rat plasma at 20 mg/kg, po; type: ADME, organism-based; set-up: dose 20 mg/kg, route po
[16] = biological target: Human immunodeficiency virus type 1 protease (Human immunodeficiency virus 1, UniProt Q72874); assay: Inhibition of HIV-1 protease
[17] = Dissociation constant, pKa of the compound; type: physicochemical
[18] = Inhibition of Calcium channel (unknown origin); set-up: species or system Homo sapiens
[19] = Stability of the compound assessed as acid hydrolysis by measuring half-life; type: physicochemical
[20] = Stability of the compound in 20% aqueous dioxane solution at 30 degreeC assessed as compound hydrolysis by measuring rate constant; type: physicochemical; details: buffer
[21] = Inhibition of Leukotriene B4 production in human blood Polymorphonuclear neutrophil cells; type: functional, tissue-based
[22] = tested on: Pasteurella multocida; assay: Antibacterial activity against Pasteurella multocida 59A0067 assessed as inhibition of bacterial growth by microdilution method; type: functional
[23] = tested on: Staphylococcus aureus; assay: Antibacterial activity against Staphylococcus aureus 01A0785 assessed as inhibition of bacterial growth by microdilution method; type: functional
[24] = tested on: Escherichia coli; assay: Antibacterial activity against Escherichia coli 51A0150 assessed as inhibition of bacterial growth by microdilution method; type: functional
[25] = tested on: Mus musculus; assay: Antiinflammatory activity in LPS-induced Balb/c mouse model assessed as reduction in TNF-alpha release administered orally for 30 mins followed by LPS-stimulation and measured after 90 mins by ELISA analysis; type: functional; details: 2 h, route po, time 120 min

Compound: COC(=O)N[C@H](C(=O)N1CCC[C@H]1c1nc(-c2ccc3c(c2)O[C@@H](c2ccccc2)n2c-3cc3cc(-c4c[nH]c([C@@H]5CCCN5C(=O)[C@@H](NC(=O)OC)C(C)C)n4)ccc32)c[nH]1)C(C)C [ELBASVIR]
bioavailability [4]: 17% | bioavailability [5]: 32% | bioavailability [6]: 9% | bioavailability [7]: 35% | EC50 [8]: 2.4 nM

Compound: C[C@@H]1CC[C@H]2[C@@H](C)C(=O)O[C@@H]3O[C@@]4(C)CC[C@@H]1[C@]32OO4 [ARTEMISININ]
half-life [9]: 1440 min | IC50 [10]: 2.8 nM | IC50 [11]: 7 nM

Compound: CC(C)CN(C[C@@H](O)[C@H](Cc1ccccc1)NC(=O)O[C@H]1C2CO[C@H]3OCC1C3C2)S(=O)(=O)c1ccc2oc(NC3CC3)nc2c1 (stereo partly specified)
IC50 [16]: 0.26 nM

Compound: CC1(C)COC2(CCC(N[C@H]3CC[C@H](Nc4ccnc5cc(Cl)ccc45)CC3)CC2)OO1 (stereo partly specified)
IC50 [11]: 10 nM

Compound: COC(=O)N[C@H](C(=O)N1CCC[C@H]1c1ncc(-c2ccc3c(c2)CCn2c-3cc3cc(-c4cnc([C@@H]5CCCN5C(=O)[C@@H](NC(=O)OC)C(C)C)[nH]4)ccc32)[nH]1)C(C)C
EC50 [8]: 170 nM

Compound: O=C1CCC2(CC1)OOC1(O2)C2CC3CC(C2)CC1C3 (stereo unspecified)
bioavailability [6]: < 1% | solubility [13]: < 0.001 mg/mL

Compound: CC(C)(C)NC(=O)[C@@H]1C[C@@H]2CCCC[C@@H]2CN1C[C@@H](O)[C@H](Cc1ccccc1)NC(=O)O[C@H]1CO[C@H]2CCC[C@H]21
IC50 [16]: 190 nM

Compound: COC(=O)N[C@H](C(=O)N1CCC[C@H]1c1ncc(-c2ccc3c(c2)OCn2c-3cc3cc(-c4cnc([C@@H]5CCCN5C(=O)[C@@H](NC(=O)OC)C(C)C)[nH]4)ccc32)[nH]1)C(C)C
EC50 [8]: 5 nM

Compound: CC(C)C1=C[C@H]2OC3(CCC(N[C@H]4CC[C@H](Nc5ccnc6cc(Cl)ccc56)CC4)CC3)OO[C@@]2(C)CC1 (stereo partly specified)
IC50 [11]: 18 nM

Compound: COC(=O)N[C@H](C(=O)N1CCC[C@H]1c1ncc(-c2cc(F)c3c(c2)O[C@@H](c2cnc(C4CC4)s2)n2c-3cc3cc(-c4cnc([C@@H]5CCCN5C(=O)[C@@H](NC(=O)OC)C(C)C)[nH]4)ccc32)[nH]1)C(C)C [RUZASVIR]
EC50 [8]: 0.06 nM

Compound: C1CCC2(CC1)OOC1(O2)C2CC3CC(C2)CC1C3 (stereo unspecified)
bioavailability [6]: < 1% | solubility [13]: < 0.001 mg/mL

Compound: C[S+]([O-])c1ccc(-c2nc(-c3ccncc3)c(-c3ccc(F)cc3)[nH]2)cc1 (stereo unspecified) [SB-203580]
bioavailability [6]: 10% | ED50 [25]: 10 mg/kg

Continued, in another order:

IC50 [2]: 10 nM
Compound: CC[C@H](C)C[C@H](C)CCCCCCCCC(=O)N[C@H]1C[C@@H](O)[C@@H](OCCN)NC(=O)[C@@H]2[C@@H](O)CCN2C(=O)[C@H]([C@H](O)CC(N)=O)NC(=O)[C@H]([C@H](O)[C@@H](O)c2ccc(O)cc2)NC(=O)[C@@H]2C[C@@H](O)CN2C(=O)[C@H]([C@@H](C)O)NC1=O
MFC [1]: 0.25 µg/mL (≈ 0.226 µM)

K [3]: 0.0194 min⁻¹
Compound: c1ccc(C2OCCS2)cc1 (stereo unspecified)

half-life [12]: 12 min
Compound: Nc1ccn([C@H]2C=C[C@@H](CO)O2)c(=O)n1

bioavailability [5]: 65% | solubility [13]: 70 mg/mL (≈ 198000 µM)
Compound: CC(C)[C@H](N)C(=O)OCC(CO)OCn1cnc2c(=O)nc(N)[nH]c21 (stereo partly specified) [VALGANCICLOVIR]

EC50 [14]: 840 nM
Compound: Nc1nc(=O)n([C@H]2CS[C@@H](CO)O2)cc1F

bioavailability [6]: 26% | Cmax [15]: 5 µM | bioavailability [7]: 73%
Compound: N#Cc1cc(-c2ccoc2)c2ccc(OCc3cccc(C4(O)CC5COC(C4)O5)n3)cc2c1 (stereo unspecified)

IC50 [2]: 70 nM
Compound: CC[C@H](C)C[C@H](C)CCCCCCCCC(=O)N[C@H]1C[C@@H](O)[C@@H](O)NC(=O)[C@@H]2[C@@H](O)CCN2C(=O)[C@H]([C@H](O)CC(N)=O)NC(=O)[C@H]([C@H](O)[C@@H](O)c2ccc(O)cc2)NC(=O)[C@@H]2C[C@@H](O)CN2C(=O)[C@H]([C@@H](C)O)NC1=O ({Tetradecanoyl(10R,12S-Me2)}-[Orn(4R-OH,5R-OH)]T[Hyp][hTyr(3S-OH,4S-OH)][Gln(3R-OH)][Pro(3S-OH)]; lactam 1-C)
MFC [1]: 0.25 µg/mL (≈ 0.235 µM)

K [3]: 0.00978 min⁻¹
Compound: Clc1ccc(C2OCCS2)cc1 (stereo unspecified)

pKa [17]: 8.3 | IC50 [18]: 780 nM
Compound: FC(F)(F)c1cc(CO[C@H]2CCCN[C@H]2c2ccccc2)cc(C(F)(F)F)c1

half-life [19]: > 1 min
Compound: Nc1ncnc2c1ncn2[C@@H]1O[C@H](CO)C[C@@H]1F [LODENOSINE]

K [20]: 1.7 10^-1/M/s
Compound: Cc1ccc(C2(c3ccc(C)cc3)OCCO2)cc1

bioavailability [5]: 60% | EC50 [14]: 8 nM
Compound: Nc1nc(=O)n([C@@H]2CS[C@H](CO)O2)cc1F [EMTRICITABINE]

IC50 [21]: 0.6 nM | bioavailability [6]: 26% | Cmax [15]: 2 µM
Compound: N#Cc1cc(-c2ccoc2)c2ccc(OCc3cccc(C4(O)CCOCC4)n3)cc2c1

MIC [22]: 0.03 µg/mL (≈ 0.0418 µM) | MIC [23]: 0.6 µg/mL (≈ 0.836 µM) | MIC [24]: 0.2 µg/mL (≈ 0.279 µM)
Compound: CC[C@@H]1C[C@H](O)[C@@H](C)NC[C@H](C)C[C@@]2(C)OC3(CCN(Cc4ccccc4)CC3)O[C@@H]([C@H](C)[C@H]2O[C@@H]2O[C@H](C)C[C@H](N(C)C)[C@H]2O)[C@@H](C)C(=O)O1
